Where “and” joins values, the source holds several entries; their conditions need not be identical. Equal entries are not always repeated.
Test system: intact mouse hearts
Assay: Optical mapping of cardiac electrical activity in isolated mouse hearts
Procedure: All animal handling and procedures were performed in accordance with the guidelines from Directive 2010/63/EU of the European Parliament on the protection of animals used for scientific purposes. The experimental protocol was approved by the Italian Ministry of Health (protocol number 944/2018-PR). Transgenic mice (ChR2-mhc6-cre+) with cardiomyocyte-specific expression of Channelrhodopsin-2 (ChR2, H134R variant) were generated and employed in this study. Wild-type mice (C57BL/6J) and ChR2-mhc6-cre+ mice (6 months old) were heparinized (0.1 mL at 5000 units/mL) and anesthetized by inhaled isoflurane (5%). The excised heart was immediately bathed in Krebs-Henseleit (KH) solution and cannulated through the aorta. The KH buffer contained (in mM): 120 NaCl, 5 KCl, 2 MgS2 O4-7H2O, 20 NaHCO3, 1.2 NaH2PO4—H2O, 1.8 CaCl2 and 10 glucose, pH 7.4 when equilibrated with carbogen. Cardiac contraction was inhibited during the entire experiment with 1 μM blebbistatin (Enzo Life Sciences, Farmingdale, NY, USA) in the solution. The cannulated heart was perfused through the aorta (using a horizontal-Langendorff perfusion system) with the KH solution and then transferred to a custom-built optical mapping chamber at a constant flow of 2.5 mL/min at (36±0.5)° C. Two platinum electrodes were placed below the heart for monitoring cardiac electrical activity via electrocardiogram (ECG). 1 mL of perfusion solution containing the voltage sensitive dye (VSD; ElectroFluor730p: 10 μM; di-4-ANBDQPQ: 6 μg/mL) was bolus injected into the aorta. All the experiments were performed at (36±0.5° C.) within 1 hour after dye loading to avoid potential re-distribution of the dye and accumulation of phototoxic by-products.
Optical mapping was performed using a custom-made mesoscope. Stained mouse hearts were illuminated in a wide-field configuration using a 2× objective (TL2x-SAP, Thorlabs, Newton, NJ, USA) and employing four different LED operating at a wavelength centred at 730 nm, 625 nm, 590 nm and 530 nm (M730L5, M625L3, M590L4 and M530L4 Thorlabs, Newton, NJ, USA) followed by excitation band-pass filters at 730/39 nm, 640/40 nm, 589/15 nm (FF01-730/39-25, FF01-640/40-25, FF01-589/15-25, Semrock) and 530/43 nm (MF530-43, Thorlabs) respectively. di-4-ANBDQPQ stained hearts were excited at 625 nm (0.875 mW/mm^2) and a dichroic beam splitter (FF685-Di02-25×36, Semrock) followed by a band-pass filter at 775/140 nm (FF01-775/140-25, Semrock) was used for collecting the emitted fluorescent signal. […] Light intensities were measured at sample site using a photodiode sensor (PD300-3W, Ophir Optronics, Jerusalem, Israel). […]

pharmacological effects of the VSD (isolated mouse hearts): no measurable pharmacological effects
Compound: CCCCCCN(CCCCCC)c1ccc2c(c1)OCC(/C=C/c1c(F)c[n+](CCC[N+](CC)(CC)CC)c3ccccc13)=C2.[Br-].[Br-] [2c]
sensitivity to an AP (APA), % decrease in fluorescence at the peak of an AP (730 nm excitation, compared with di-4-ANBDQPQ): higher than that of di-4-ANBDQPQ
differences in AP kinetics (APRS, APD50, APD70, APD90) (compared with di-4-ANBDQPQ, student's t-test, listed as ElectroFluor730p): no statistically significant differences in AP parameters excepting AP Amplitude
inversion point (isosbestic point) of sensitivity (excitation 730, 590, 530 nm, exponential fit, listed as ElectroFluor730p): ≈ 571 nm and ~571 nm

Reference: patent publication US20260048151A1, “HEMICYANINE PUSH-PULL DYES BASED ON CHROMENE ELECTRON DONORS” (UNIVERSITY OF CONNECTICUT, priority 2022, published 2026)
